Assay results taken from US8728808B2, “Multiple inducible gene regulation system” (Intrexon Corporation, priority 2000, dated 2014).

Key:
[1] = system: LexACfEcR-CDEF/VP16MmRXR-LmUSP-EFchimera; experiment: Dual switch reporter assay in NIH3T3 cells, luciferase under 8opLexARE; format: cell-based, Choristoneura fumiferana; conditions: mouse NIH3T3 cells, 0.02, 0.1, 0.5, or 2.5 μM ligand, 48 hours, FIG. 1
From the text: (§1) A polynucleotide encoding the C, D, E, and F domains from fruit fly Drosophila melanogaster EcR (“DmEcR-CDEF”; SEQ ID NO: 1) was fused to a polynucleotide encoding a GAL4 DNA binding domain (“Gal4DNABD” or “Gal4 DBD”; SEQ ID NO: 2) and placed under the control of a cytomegalovirus (CMV) promoter/enhancer (SEQ ID NO: 3). A polynucleotide encoding the C, D, E, and F domains from spruce budworm Choristoneura fumiferana EcR (“CfEcR-CDEF”; SEQ ID NO: 4) was fused to a polynucleotide encoding a LexA DNA binding domain (“LexADNABD” or “LexADBD”; SEQ ID NO: 5) and placed under the control of a cytomegalovirus (CMV) promoter/enhancer (SEQ ID NO: 3). […]
(§2) DNAs corresponding to the dual switch constructs outlined in Examples 1.1 and 1.2 were transfected into mouse NIH3T3 cells (ATCC; Example 1.1) or CHO cells (ATCC; Example 1.2) as follows. […] One μg of reporter construct and 0.25 μg of each receptor construct of the receptor pair to be analyzed were added to the transfection mix. […]
(§3) Cells were harvested 48 hours after adding ligands and reporter activities were quantified using the Dual-luciferase™ reporter assay system from Promega Corporation. […] Luciferase activity was measured using Dual-luciferase™ reporter assay system from Promega Corporation following the manufacturer's instructions. […]

[2] = target: T1, GAL4DmEcR-CDEF/VP16MmRXR-LmUSP-EFchimera (Drosophila melanogaster, UniProt P34021); experiment: Dual switch reporter assay in NIH3T3 cells, SEAP under 6XGAL4RE; format: cell-based; conditions: mouse NIH3T3 cells, 0.02, 0.1, 0.5, or 2.5 μM ligand, 48 hours, FIG. 1
T1 construct: C, D, E, and F domains from fruit fly Drosophila melanogaster EcR (“DmEcR-CDEF”); expressed in transfected cells; host or cells: mouse NIH3T3 cells
From the text: as §1, §2, §3

[3] = system: GAL4CfEcR-DEF/VP16MmRXRα-EF; experiment: Transactivation of pFRLuc reporter in CHO cells through CfEcR; format: cell-based, Choristoneura fumiferana; conditions: hamster CHO cells, 0.1, 1, 5, or 10 μM ligand, 48 hours, FIG. 2
Procedure: (§4) This construct was prepared as follows. A polynucleotide encoding the D, E, and F domains from spruce budworm Choristoneura fumiferana EcR (“CfEcR-DEF”; SEQ ID NO: 14) was fused to a polynucleotide encoding a GAL4DNA binding domain (“GAL4 DBD”; SEQ ID NO: 2) and placed under the control of a cytomegalovirus (CMV) promoter/enhancer (SEQ ID NO: 3). A polynucleotide encoding the C, D and E domains from green leafhopper Nephotelix cincticeps ecdysone receptor (“NcEcR-CDE”; SEQ ID NO: 15) was fused to a polynucleotide encoding a GAL4DNA binding domain (“GAL4 DBD”; SEQ ID NO: 2) and placed under the control of a cytomegalovirus (CMV) promoter/enhancer (SEQ ID NO: 3). […]
as §2, §3

[4] = system: GAL4NcEcR-CDE/VP16MmRXRα-EF; experiment: Transactivation of pFRLuc reporter in CHO cells through NcEcR; format: cell-based, Nephotetix cincticeps; conditions: hamster CHO cells, 0.1, 1, 5, or 10 μM ligand, 48 hours, FIG. 2
Procedure: as §4, §2, §3

T1 sequence (P34021 other isoform, or with tags, fused parts or gaps): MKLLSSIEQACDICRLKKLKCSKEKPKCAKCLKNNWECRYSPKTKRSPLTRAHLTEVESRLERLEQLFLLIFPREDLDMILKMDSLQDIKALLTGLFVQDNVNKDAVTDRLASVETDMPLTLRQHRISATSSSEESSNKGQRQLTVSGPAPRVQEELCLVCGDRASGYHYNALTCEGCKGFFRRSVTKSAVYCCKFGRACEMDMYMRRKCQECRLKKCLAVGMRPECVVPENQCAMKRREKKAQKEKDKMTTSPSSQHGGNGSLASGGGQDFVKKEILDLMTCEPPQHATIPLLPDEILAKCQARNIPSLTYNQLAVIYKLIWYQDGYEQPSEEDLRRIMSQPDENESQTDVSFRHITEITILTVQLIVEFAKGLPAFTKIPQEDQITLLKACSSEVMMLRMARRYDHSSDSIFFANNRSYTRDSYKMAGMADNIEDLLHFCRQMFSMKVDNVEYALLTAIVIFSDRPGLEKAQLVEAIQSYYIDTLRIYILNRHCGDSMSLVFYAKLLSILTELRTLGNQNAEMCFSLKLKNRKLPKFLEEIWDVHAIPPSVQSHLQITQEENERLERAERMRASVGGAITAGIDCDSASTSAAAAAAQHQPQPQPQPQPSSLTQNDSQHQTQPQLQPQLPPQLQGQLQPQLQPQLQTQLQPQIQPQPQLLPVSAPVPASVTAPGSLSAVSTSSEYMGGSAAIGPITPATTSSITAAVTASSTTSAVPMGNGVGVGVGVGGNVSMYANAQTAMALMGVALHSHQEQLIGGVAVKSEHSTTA

| Structure (SMILES) | induction of luciferase reporter activity (LexACfEcR-CDEF switch) [1] | induction of SEAP reporter activity (GAL4DmEcR-CDEF switch) [2] | induction of luciferase reporter activity regulated by CfEcR-DEF [3] | induction of luciferase reporter activity regulated by NcEcR-CDE [4] |
| --- | --- | --- | --- | --- |
| CCc1c(OC)cccc1C(=O)NN(C(=O)c1cc(C)cc(C)c1)C(C)(C)C [GS™-E, N-(2-ethyl-3-methoxybenzoyl)-N′-(3,5-dimethylbenzoyl)-N′-tert-butylhydrazine] | luciferase activity was induced | only luciferase activity was induced | luciferase activity regulated by CfEcR-DEF was induced | does not induce reporter gene expression |
| CC(C)CC[C@@H](O)[C@](C)(O)[C@H]1CC[C@@]2(O)C3=CC(=O)[C@@H]4C[C@@H](O)[C@@H](O)C[C@]4(C)[C@H]3CC[C@]12C [PonA, ponasterone A] | only SEAP reporter activity was induced | SEAP reporter activity was induced | did not induce reporter gene expression | luciferase reporter activity regulated by NcEcR-DE was induced |
